This data set has as its system Pseudomonas aeruginosa, Escherichia coli, Klebsiella sp., Salmonella sp., Staphylococcus aureus, Enterococcus sp., Bacillus subtilis. Put plainly: Antimicrobial activity / minimum inhibitory concentrations on seven strains of bacteria. It is filed as cell-based. The following applies: for toxicity / antibacterial activity in words: seven strains of bacteria; for MIC values: seven strains, not split, range tested 0-20000 μg/ml. As for the experimental part:
Seven strains of bacteria were used in the assessment of the antimicrobial activity of the ILs claimed: 4 gram negative and three gram positive as shown below.
A wide concentration range was tested (0-20000 μg/ml). The concentrations screened for antibacterial activity are generally from 2 μg/ml to 1000 μg/ml (Table 6). […] The concentration range screened for the ILs containing ethers was up to 20000 μg/ml. At these high concentrations a lack of antibacterial activity is a significant result.

Results on 15 compounds are retold here after US8541598B2, “Biodegradable solvents for the chemical industry” (Dublin City University, priority 2007, dated 2013).

“Also recorded” adds a separate entry of the source.

As for “3-methyl-1-(2-[2-ethoxy]ethoxycarbonylmethyl)imidazolium BF4 [KG63]”, the “toxicity / antibacterial activity in words” value is reported as “non-toxic” and the MIC values is reported as greater than 20000 KG63 μg/ml.

Consider “3-methyl-1-(2-[2-butoxyethoxy]ethoxycarbonylmethyl)imidazolium BF4 [KG69]”, for which the “toxicity / antibacterial activity in words” value is recorded as “non-toxic” and the MIC values is reported as greater than 20000 KG69 μg/ml.

`CCCCOC(=O)Cn1cc[n+](C)c1.N#C[N-]C#N` [KG73, 3-Methyl-1-(butoxycarbonylmethyl) imidazolium N(CN)2^−] yielded an MIC values of 5000 KG73 μg/ml.

Regarding `COCCOC(=O)Cn1cc[n+](C)c1.O=S(=O)([N-]S(=O)(=O)C(F)(F)F)C(F)(F)F` [KG49, 3-methyl-1-(2-[2-methoxy]ethoxycarbonylmethyl)imidazolium NTf2], the “toxicity / antibacterial activity in words” value is “non-toxic” and the MIC values is 10000 KG49 μg/ml.

In the case of `COC(C)NC(=O)C[n+]1ccn(C)c1.[Br-]` (centres unmarked) [KG422, (3-methyl-1-[1-methoxyethyl]carbamylmethyl)imidazolium bromide], the “toxicity / antibacterial activity in words” value is listed as “low toxicity; also recorded: non-toxic” and the MIC values is recorded as greater than 20000 KG422 μg/ml.

Regarding “3-methyl-1-(2-[2-methoxy]ethoxycarbonylmethyl)imidazolium bromide [KG7]”, the “toxicity / antibacterial activity in words” value was “non-toxic” and the MIC values is given as greater than 20000 KG7 μg/ml.

For the compound “3-methyl-1-(2-[2-methoxyethoxy]ethoxycarbonylmethyl)imidazolium PF6 [KG27]”, the “toxicity / antibacterial activity in words” value is “non-toxic” and the MIC values is 2500 KG27 μg/ml.

Consider “3-methyl-1-(2-[2-propoxyethoxy]ethoxycarbonylmethyl)imidazolium BF4 [KG68]”, for which the “toxicity / antibacterial activity in words” value is listed as “non-toxic” and the MIC values is recorded as greater than 20000 KG68 μg/ml.

With `COCCOCCOC(=O)Cn1cc[n+](C)c1.N#C[N-]C#N` [KG79, 3-methyl-1-(2-[2-methoxyethoxy]ethoxycarbonylmethyl)imidazolium N(CN)2], the “toxicity / antibacterial activity in words” value is “non-toxic” and the MIC values was greater than 20000 KG79 μg/ml.

“3-methyl-1-(2-[2-methoxy]ethoxycarbonylmethyl)imidazolium PF6 [KG23]”: the “toxicity / antibacterial activity in words” value was “non-toxic” and the MIC values was greater than 20000 KG23 μg/ml.

On to `CCCCOCCOC(=O)Cn1cc[n+](C)c1.N#C[N-]C#N` [KG78, 3-methyl-1-(2-[2-butoxy]ethoxycarbonylmethyl)imidazolium N(CN)2], for which the “toxicity / antibacterial activity in words” value is reported as “non-toxic” and the MIC values is listed as greater than 20000 KG78 μg/ml.

Consider `COCCOCCOC(=O)Cn1cc[n+](C)c1.O=S(=O)([N-]S(=O)(=O)C(F)(F)F)C(F)(F)F` [KG53, 3-methyl-1-(2-[2-methoxyethoxy]ethoxycarbonylmethyl)imidazolium NTf2], for which the “toxicity / antibacterial activity in words” value is reported as “non-toxic” and the MIC values was determined as 10000 KG53 μg/ml.

For the compound “3-methyl-1-(2-[2-propoxy]ethoxycarbonylmethyl)imidazolium PF6 [KG25]”, the “toxicity / antibacterial activity in words” value is “non-toxic” and the MIC values was greater than 20000 KG25 μg/ml.

With `COCCOCCOC(=O)Cn1cc[n+](C)c1C.O=S(=O)([N-]S(=O)(=O)C(F)(F)F)C(F)(F)F` [KG59, 2,3-dimethyl-1-(2-[2-methoxyethoxy]ethoxycarbonylmethyl)imidazolium NTf2], the “toxicity / antibacterial activity in words” value is on record as “non-toxic” and the MIC values was greater than 20000 KG59 μg/ml.

For the compound `CCOCCOC(=O)C[n+]1ccn(C)c1.O=S(=O)([N-]S(=O)(=O)C(F)(F)F)C(F)(F)F` [KG50, 3-methyl-1-(2-[2-ethoxy]ethoxycarbonylmethyl)imidazolium NTf2], the “toxicity / antibacterial activity in words” value is reported as “non-toxic” and the MIC values is recorded as greater than 20000 KG50 μg/ml.
